Literature values in US9020605B2, “Electroporation device” (OncoSec Medical Incorporated, priority 2012, dated 2015).

Conditions: P being the partition coefficient between octanol and water

bleomycin
log P: very negative
